Laboratory results published in patent publication US5223169A, “Hydrolase surfactant systems and their use in laundering” (priority 1991, dated 1993).

How the values were obtained:
Experiment in all cases: pH-stat assay of triglyceride emulsion hydrolysis; critical oil-to-surfactant ratio
[1] = test system: enzyme from P. putida ATCC 53552 (lipase GC-1065); type: biochemical, Pseudomonas putida; settings: for Specific Activity determined from initial rates, GC-1065, High / Critical Ratio, GC-1065, High / Critical Ratio, GC-1065, Low / Specific Activity determined from initial rates, GC-1065, Low: trioctanoin emulsions; for Specific Activity determined from initial rates, GC-1065, High: high surfactant conc. as E41; for Critical Ratio, GC-1065, High / Critical Ratio, GC-1065, Low: lipase ~2 ppm; for Critical Ratio, GC-1065, High: high surfactant conc.: SDS 10 mM, Neodol 25-3S 10 mM, Surfonic JL-80X 5 mM, Triton X-100 10 mM, C16 DAPS 10 mM; for Critical Ratio, GC-1065, Low: low surfactant conc.: SDS 2 mM, Triton X-100 2 mM, C16 DAPS 0.5 mM; for Specific Activity determined from initial rates, GC-1065, Low: low surfactant conc. as E40; for Enzyme Activity (initial rate of hydrolysis): enzyme 2 ppm
Text: (§1) To determine the critical ratio for any specific enzyme-surfactant combination, aliquots of an aqueous solution, each containing a determined (constant) amount of the enzyme which is effective in the absence of any surfactant to hydrolyze the triglycerides in an oily stain on a determined (constant) amount of a fabric soiled by a determined (constant) amount of a triglyceride oil, are mixed with a determined (constant) amount of a surfactant which is within the range of the amounts conventionally present in home laundry solutions, e.g., from about 0.2 to 1.5. mM, and which is effective to inhibit the hydrolyzing activity of the enzyme. To the aliquots are added a hydrolysis activator, e.g., trioctanoin, in increasing amounts and the hydrolyzing activity of the enzyme in the various solutions is determined.
(§2) The experiments determining enzyme activity, such as those set out in Tables IA and IB, were carried out as follows:
(§3) The desired amount of triglyceride was weighed into an appropriate size beaker, on a Mettler balance (model number AE163). The corresponding amount of surfactant was added to the triglyceride, from a previously prepared aqueous surfactant stock solution, and the triglyceride and surfactant mixed manually. The sample was then adjusted to the desired weight using doubly distilled H2 O. Emulsification of the sample was carried out, prior to assaying enzyme activity, with a probe sonicator (Braun-Sonic model 2000), on ice, for approx. 2 minutes.
(§4) (ii) Enzyme Activity Measurement:
(§5) This was achieved by monitoring the rate of acid liberation, from the enzymatic hydrolysis of the triglycerides in the emulsion. The assay was initiated by adding approx. 2 ppm lipase to 10 ml of the prepared emulsion. The acid liberated was monitored by autotitration, on a Radiometer pH-stat (model number ABU80) to an endpoint of a pH of 10. Initial rates were recorded for the first 5 minutes of the reaction, and the reaction rates reported as μmole H^+ titrated . min ^-1 mgE^-1. Occasionally enzyme activity is reported as % total oil hydrolyzed in 14 min. In these examples, the reaction was allowed to run for 14 min. and the amount of acid titrated recorded. The % total oil (triglyceride) hydrolyzed was then calculated by dividing the recorded value with the theoretically calculated value assuming three equivalents of oleic acid was produced for each triglyceride equivalent. All assays were run at ambient temperatures.

Enzyme Amano 68S = type: biochemical, P. sp.; settings: for Critical Ratio / Enzyme Activity: surfactant conc.: SDS 1 mM
Text: as §1, §2, §3, §4, §5

Enzyme Amano P = biological target: T1, Enzyme Amano P (Burkholderia cepacia, UniProt P22088); type: biochemical, P. fluorescens
T1 construct: purchased Amano Co
Text: as §1, §2, §3, §4, §5

[2] = Table II, trioctanoin, surfactant conc.: SDS 2 mM, C12 LAS 1 mM, Neodol 25-3S 2 mM, Neodol 25-9 0.5 mM, Surfonic JL80X 0.5 mM, Triton X100 2 mM
[3] = C12 LAS 1 mM, Neodol 25-9 0.5 mM, Neodol 25-3S 2 mM, Surfonic JL-80X 0.5 mM
[4] = Table IV, trioctanoin, C12 LAS 0.2 mM, Neodol 25-3S 0.5 mM, Neodol 25-9 0.5 mM, Surfonic JL80X 0.5 mM
[5] = Table Summary, second block of lines (corresponds to triolein Tables VI-IX)
[6] = Table VIII, triolein, C12 LAS 0.5 mM, Neodol 25-3S 0.5 mM, Neodol 25-9 0.5 mM, Surfonic JL80X 2.5 mM
[7] = Table III, trioctanoin, surfactant conc.: SDS 2 mM, C12 LAS 1 mM, Neodol 25-3S 2 mM, Neodol 25-9 0.5 mM, Surfonic JL80X 0.5 mM
[8] = Table VII, triolein, surfactant conc.: SDS 1 mM, others 0.5 mM
[9] = triolein emulsions, high conc.: SDS 10 mM, C12 LAS 5 mM, Neodol 25-9 5 mM, Neodol 25-3S 5 mM, Surfonic JL-80X 2.5 mM
[10] = Table VI, triolein, surfactant conc.: SDS 1 mM, C12 LAS 0.5 mM, Neodol 25-3S 1 mM, Neodol 25-9 0.5 mM, Surfonic JL80X 0.5 mM

T1 sequence (P22088 45-364): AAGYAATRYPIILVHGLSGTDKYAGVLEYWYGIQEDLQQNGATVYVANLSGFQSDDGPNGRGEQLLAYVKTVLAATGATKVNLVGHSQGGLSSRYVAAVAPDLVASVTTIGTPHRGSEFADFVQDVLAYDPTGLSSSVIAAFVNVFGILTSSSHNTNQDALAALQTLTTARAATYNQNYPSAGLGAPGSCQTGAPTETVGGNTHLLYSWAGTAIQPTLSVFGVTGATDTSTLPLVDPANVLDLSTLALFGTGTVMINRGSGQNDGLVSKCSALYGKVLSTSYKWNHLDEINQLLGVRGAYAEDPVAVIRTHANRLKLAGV

Compound: Triton X-100
- Critical Ratio [1, 2]: 10-15
- Enzyme Activity [1, 2]: 450 μmole H^+ released min^-1 mgE^
- Specific Activity determined from initial rates, GC-1065, High [1]: 400 μeq acid/min.mg
- Critical Ratio, GC-1065, High ([1]; C12 LAS 5 mM, Neodol 25-9 5 mM): 15-20
- Critical Ratio, GC-1065, Low [1, 3]: 10-15
- Specific Activity determined from initial rates, GC-1065, Low [1]: 450 μeq acid/min.mg

Compound: CCCCCCCC/C=C\CCCCCCCC(=O)[O-].[Na+] [Na Oleate, sodium oleate]
- Enzyme Activity ([1]; triolein substrate, surfactant 0.3 mM, system ratio 1): 0 μmole H^+ titrated . min ^-1 m
- Enzyme Activity ([1]; triolein substrate, surfactant 0.3 mM, system ratio 5): 0 μmole H^+ titrated . min ^-1 m
- Enzyme Activity ([1]; triolein substrate, surfactant 0.3 mM, system ratio 10): 0 μmole H^+ titrated . min ^-1 m
- Enzyme Activity ([1]; triolein substrate, surfactant 0.3 mM, system ratio 20): 60 μmole H^+ titrated . min ^-1 m
- Enzyme Activity ([1]; triolein substrate, surfactant 0.3 mM, system ratio 30): 90 μmole H^+ titrated . min ^-1 m

Compound: CCCCCCCCCCCCOS(=O)(=O)[O-].[Na+] [SDS, sodium dodecylsulfate]
- Critical Ratio (Enzyme Amano 68S; [4]): 0.1-0.5
- Enzyme Activity (Enzyme Amano 68S; [4]): 400 μmole H^+ released min^-1 mgE^
- critical ratio class, Amano 68S (Enzyme Amano 68S; [5]): 0 (means a critical ratio of 1.0-10)
- Critical Ratio (Enzyme Amano 68S; [6]): 1-5
- Enzyme Activity (Enzyme Amano 68S; [6]): 200 μmole H^+ released min^-1 mgE^
- Specific Activity determined from initial rates, AMANO 68S, High (Enzyme Amano 68S; trioctanoin emulsions, high surfactant conc. as E45): 1200 μeq acid/min.mg
- Critical Ratio, AMANO 68S, High (Enzyme Amano 68S; trioctanoin emulsions, lipase ~2 ppm, high conc.: SDS 10 mM, C12 LAS 2 mM, Neodol 25-9 5 mM, Neodol 25-3S 10 mM, Surfonic JL-80X 5 mM): 10-15
- Critical Ratio, AMANO 68S, Low (Enzyme Amano 68S; trioctanoin emulsions, lipase ~2 ppm, low conc.: SDS 1 mM, C12 LAS 0.2 mM, Neodol 25-9 0.5 mM, Neodol 25-3S 0.5 mM, Surfonic JL-80X 0.5 mM): 0.1-0.5
- Specific Activity determined from initial rates, AMANO 68S, Low (Enzyme Amano 68S; trioctanoin emulsions, low surfactant conc. as E44): 400 μeq acid/min.mg
- Activity (specific hydrolysis activity from initial rates), AMANO 68S, High (Enzyme Amano 68S; triolein emulsions, high conc. as E59): 175 μeq acid/min./mg
- R, critical (minimum activating molar) ratio, AMANO 68S, High (Enzyme Amano 68S; triolein emulsions, high conc.: SDS 10 mM, C12 LAS 5 mM, Neodol 25-9 5 mM, Neodol 25-3S 5 mM, Surfonic JL-80X 2.5 mm): 5-10
- Activity (specific hydrolysis activity from initial rates), AMANO 68S, Low (Enzyme Amano 68S; triolein emulsions, low conc. as E58): 200 μeq acid/min./mg
- R, critical (minimum activating molar) ratio, AMANO 68S, Low (Enzyme Amano 68S; triolein emulsions, low conc.: SDS 1 mM, C12 LAS 0.5 mM, Neodol 25-9 0.5 mM, Neodol 25-3S 0.5 mM, Surfonic JL-80X 2.5 mM): 1-5
- Critical Ratio (Enzyme Amano P; [7]): 1-5
- Enzyme Activity (Enzyme Amano P; [7]): 100 μmole H^+ released min^-1 mgE^
- critical ratio class, Amano P (Enzyme Amano P; [5]): 0 (means a critical ratio of 1.0-10)
- Critical Ratio (Enzyme Amano P; [8]): 5-10
- Enzyme Activity (Enzyme Amano P; [8]): 160 μmole H^+ released min^-1 mgE^
- Specific Activity determined from initial rates, AMANO P, High (Enzyme Amano P; trioctanoin emulsions, high surfactant conc. as E43): 200 μeq acid/min.mg
- Critical Ratio, AMANO P, High (Enzyme Amano P; trioctanoin emulsions, lipase ~2 ppm, high conc.: SDS 10 mM, C12 LAS 5 mM, Neodol 25-9 5 mM, Neodol 25-3S 20 mM, Surfonic JL-80X 5 mM): 5-10
- Critical Ratio, AMANO P, Low (Enzyme Amano P; trioctanoin emulsions, lipase ~2 ppm, low conc.: SDS 2 mM, C12 LAS 1 mM, Neodol 25-9 0.5 mM, Neodol 25-3S 2.0 mM, Surfonic JL-80X 0.5 mM): 1-5
- Specific Activity determined from initial rates, AMANO P, Low (Enzyme Amano P; trioctanoin emulsions, low surfactant conc. as E42): 100 μeq acid/min.mg
- Activity (specific hydrolysis activity from initial rates), AMANO P, High (Enzyme Amano P; triolein emulsions, high conc. as E57): 150 μeq acid/min./mg
- R, critical (minimum activating molar) ratio, AMANO P, High (Enzyme Amano P; [9]): 5-10
- Activity (specific hydrolysis activity from initial rates), AMANO P, Low (Enzyme Amano P; triolein emulsions, low conc. as E56): 160 μeq acid/min./mg
- R, critical (minimum activating molar) ratio, AMANO P, Low (Enzyme Amano P; triolein emulsions, low conc.: SDS 1 mM, others 0.5 mM): 5-10
- Critical Ratio [1, 2]: 0.5-5.0
- Enzyme Activity [1, 2]: 325 μmole H^+ released min^-1 mgE^
- critical ratio class, enzyme From ATCC 53552 [1, 5]: 0 (means a critical ratio of 1.0-10)
- Critical Ratio [1, 10]: 5-10
- Enzyme Activity [1, 10]: 60 μmole H^+ released min^-1 mgE^
- Specific Activity determined from initial rates, GC-1065, High [1]: 450 μeq acid/min.mg
- Critical Ratio, GC-1065, High ([1]; C12 LAS 5 mM, Neodol 25-9 5 mM): 1-3
- Critical Ratio, GC-1065, Low [1, 3]: 0.5-5.0
- Specific Activity determined from initial rates, GC-1065, Low [1]: 325 μeq acid/min.mg
- Activity (specific hydrolysis activity from initial rates), GC-1065, High ([1]; triolein emulsions, high conc. as E55): 50 μeq acid/min./mg
- R, critical (minimum activating molar) ratio, GC-1065, High [1, 9]: 1-5
- Activity (specific hydrolysis activity from initial rates), GC-1065, Low ([1]; triolein emulsions, low conc. as E54): 60 μeq acid/min./mg
- R, critical (minimum activating molar) ratio, GC-1065, Low ([1]; triolein emulsions, low conc.: SDS 1 mM, C12 LAS 0.5 mM, Neodol 25-9 0.5 mM, Neodol 25-3S 1 mM, Surfonic JL-80X 0.5 mM): 5-10

Compound: CCCCCCCCCCCCCCCC [Hexadecane, hexadecane]
- Enzyme Activity (Enzyme Amano P; trioctanoin 5 mm + hexadecane 10 mm, Neodol 25-3S 0.5, system ratio 40): 45 μmole H^+ released min^-1 mgE^
- Enzyme Activity ([1]; triolein 0.3 mM + hexadecane 1.2 mM, Surfonic JL-80X 0.3 mM, system ratio 5): 8 μmole H^+ released min^-1 mgE^
- Enzyme Activity ([1]; triolein 0.3 mM + hexadecane 1.2 mM, Surfonic JL-80X 0.3 mM, system ratio 5, listed as hexadecane): active

Compound: CCCCCCCCCCCCCCCC[N+](C)(C)CCCS(=O)(=O)[O-] [C16 DAPS]
- Enzyme Activity (initial rate of hydrolysis) ([1]; trioctanoin 0.5 mM, surfactant 0.5 mM, system ratio 1): 0 μmole H^+ released min^-1 mgE^
- Enzyme Activity (initial rate of hydrolysis) ([1]; trioctanoin 2.5 mM, surfactant 0.5 mM, system ratio 5): 0 μmole H^+ released min^-1 mgE^
- Enzyme Activity (initial rate of hydrolysis) ([1]; trioctanoin 5 mM, surfactant 0.5 mM, system ratio 10): 0 μmole H^+ released min^-1 mgE^
- Enzyme Activity (initial rate of hydrolysis) ([1]; trioctanoin 10 mM, surfactant 0.5 mM, system ratio 20): 334 μmole H^+ released min^-1 mgE^
- Enzyme Activity (initial rate of hydrolysis) ([1]; trioctanoin 10 mM, surfactant 10 mM, system ratio 1): 0 μmole H^+ released min^-1 mgE^
- Enzyme Activity (initial rate of hydrolysis) ([1]; trioctanoin 15 mM, surfactant 0.5 mM, system ratio 30): 405 μmole H^+ released min^-1 mgE^
- Enzyme Activity (initial rate of hydrolysis) ([1]; trioctanoin 20 mM, surfactant 0.5 mM, system ratio 40): 370 μmole H^+ released min^-1 mgE^
- Enzyme Activity (initial rate of hydrolysis) ([1]; trioctanoin 50 mM, surfactant 10 mM, system ratio 5): 0 μmole H^+ released min^-1 mgE^
- Enzyme Activity (initial rate of hydrolysis) ([1]; trioctanoin 200 mM, surfactant 10 mM, system ratio 20): 398 μmole H^+ released min^-1 mgE^
- Enzyme Activity (initial rate of hydrolysis) ([1]; trioctanoin 300 mM, surfactant 10 mM, system ratio 30): 370 μmole H^+ released min^-1 mgE^
- Enzyme Activity (initial rate of hydrolysis) ([1]; trioctanoin 400 mM, surfactant 10 mM, system ratio 40): 417 μmole H^+ released min^-1 mgE^
- critical ratio (system ratio of oil to surfactant at which enzymatic activity begins) ([1]; trioctanoin as oil, surfactant 0.5 and 10 mM (Table IA)): 10-20
- Specific Activity determined from initial rates, GC-1065, High [1]: 450 μeq acid/min.mg
- Critical Ratio, GC-1065, High ([1]; C12 LAS 5 mM, Neodol 25-9 5 mM): 10-20
- Critical Ratio, GC-1065, Low [1, 3]: 10-20
- Specific Activity determined from initial rates, GC-1065, Low [1]: 450 μeq acid/min.mg

Compound: CCCCCCCCCCCC(=O)N(CC)CC [N,N-diethyldodecanamide]
- Enzyme Activity ([1]; no trioctanoin, N,N-diethyldodecanamide 10.0 mm, Neodol 25-9 0.5 mm): < 5 μeq of fatty acid produced in 14 minutes
- Enzyme Activity ([1]; trioctanoin 2.5 mm, N,N-diethyldodecanamide 2.5 mm, Neodol 25-9 0.5 mm): 5 μeq of fatty acid produced in 14 minutes
- Enzyme Activity ([1]; trioctanoin 2.5 mm, N,N-diethyldodecanamide 5.0 mm, Neodol 25-9 0.5 mm): 12 μeq of fatty acid produced in 14 minutes
- Enzyme Activity ([1]; trioctanoin 2.5 mm, N,N-diethyldodecanamide 7.5 mm, Neodol 25-9 0.5 mm): 19 μeq of fatty acid produced in 14 minutes
